Test results taken from US20240245711A1, “A 19-NOR C3,3-DISUBSTITUTED C21-N-PYRAZOLYL STEROID FOR THE TREATMENT OF MAJOR DEPRESSIVE DISORDER” (Sage Therapeutics, Inc., priority 2021, published 2024).

Tested on: patients with MDD and metabolic comorbidities
Assay: Post hoc analysis of the Example 1 study: patients with MDD and metabolic comorbidities
Format: in vivo, human
Protocol: Patients with MDD who have metabolic comorbidities face additional adverse events associated with antidepressants (e.g., weight gain, metabolic abnormalities) and often respond poorly. This example presents results from a post hoc analysis of clinical study of Example 1 in patients with MDD and metabolic comorbidities.
The clinical study of Example 1 enrolled patients with MDD, aged 18-75 years, with HAMD-17 score ≥20 and a MADRS total score ≥28 to 1 of 2 cohorts: 30 mg Cohort and 50 mg Cohort. HAMD-17 responders (≥50% reduction from baseline) at Day 15 continued in study and were assessed for retreatment eligibility.
Patients with a metabolic comorbidity were identified by the following coded terms in patient history: obesity, hyperlipidemia, hypercholesterolemia, type-2 diabetes mellitus, type-1 diabetes mellitus, glucose tolerance impaired, hypertriglyceridemia, dyslipidemia, metabolic syndrome, and/or diabetic dyslipidemia.

[1] = Day 15 of first treatment cycle, metabolic comorbidities subpopulation
[2] = metabolic comorbidities subpopulation

## C[C@@]1(O)CC[C@H]2[C@H](CC[C@@H]3[C@@H]2CC[C@]2(C)[C@@H](C(=O)Cn4cc(C#N)cn4)CC[C@@H]32)C1 [Compound (1), 1-(2-((3R,5R,8R,9R,10S,13S,14S,17S)-3-hydroxy-3,13-dimethylhexadecahydro-1H-cyclopenta[a]phenanthren-17-yl)-2-oxoethyl)-1H-pyrazole-4-carbonitrile]
161/253 who responded to and completed the first treatment cycle
  Patients not requiring additional treatment courses during their time in the study: 55.9%
[1]
  HAMD-17 remission rate: 37.1%
  HAMD-17 response rate: 67.3%
  Mean (SD) CFB in HAMD-17: −14.8 (7.10)
[2]
  TEAE diarrhea: 6.7%
  TEAE dizziness: 9.1%
  TEAE dry mouth: 5.5%
  TEAE headache: 14.2%
  TEAE sedation: 5.1%
  TEAE somnolence: 13.8%
  TEAE upper respiratory infection: 5.9%
Metabolic comorbidities subpopulation (8/253)
  TEAEs leading to discontinuation of study drug: 3.2%
Metabolic comorbidities subpopulation (11/253)
  TEAEs leading to withdrawal from the study: 4.3%
Metabolic comorbidities subpopulation (19/253)
  TEAEs leading to dose reduction: 7.5%
Metabolic comorbidities subpopulation (148/167)
  Share of patients with TEAEs that were mild/moderate: 88.6%
Metabolic comorbidities subpopulation (167/253)
  Patients with ≥1 TEAE over the study duration: 66.0%
Metabolic comorbidities subpopulation, first-cycle responders
  Mean (range) number of total treatment courses: 1.9 (1-5)
Patients with MDD and metabolic comorbidities
  Tolerability: generally well tolerated
